The values that follow come from patent US20080032989A1, “Method of treating inflammatory diseases using tyroskine kinase inhibitors” (priority 2006, published 2008).

Where “and” joins values, the source holds several entries; their conditions need not be identical. Identical values can stand only once. Entries after “also recorded” stand apart in the source; their conditions may differ. Like-named read-outs stand apart in the source and are kept apart here.

Series [1] concerns PDGFR. Particulars: cited from earlier work.
The test system of the next series is FGFR. Particulars: literature, unit inferred; cited from earlier work.
The conditions of series [2]: rats, oral 50 mg/kg; cited from earlier work.
Series [3] deals with established collagen-induced arthritis (CIA) in DBA/1 mice. The series can be described thus: Treatment of established collagen-induced arthritis (CIA). It is filed as in vivo, mouse. Particulars: 50 mg/kg for 5 days vs vehicle.
For series [4], the system named is PDGFR.
The conditions of series [5]: mice, cited from earlier work; for trough plasma level: 15 hours after dosing.
The test system of series [6] is collagen-induced arthritis (CIA) in DBA/1 mice. Particulars: atorvastatin alone, 1.25 to 20 mg/kg, FIG. 16B.
Setting [7] is: Table 7, read-out: PDGFR Inhibitory profile (with IC50s when available).

As for `Cc1[nH]c(/C=C2\C(=O)Nc3ccccc32)c(C)c1CCC(=O)O` [SU6668], the IC50 with PDGFR [1] (setting [7]) is 10 nM.
`Cc1[nH]c(/C=C2\C(=O)Nc3ccc(Br)cc32)c(C)c1CCC(=O)O` [SU9518]: the IC50 with PDGFR [1] (Table 5, read-out: PDGFR Inhibitory Profile (IC50)) is 50 nM; in the series on PDGFR [1] (literature, read-out: IC50 PDGFR (PDGFRα/β)) it was 53 nM; in the series with FGFR, 4400 nM. Further, in series [2], the peak plasma level is 1.76 µM. In addition, in series [2], the “plasma level 8 hours after dosing” value was “above 1 μM”.
Turning to `CC1(C)CNc2cc(NC(=O)c3cccnc3NCc3ccncc3)ccc21` [AMG 706], the “PDGFR Inhibitory profile (with IC50s when available)” value (“PDGFR Inhibitory profile” below) in the series on PDGFR [1] (Table 7) is “potent”.
In the case of `COc1ccc(COc2ccc(Cc3cnc(N)nc3N)cc2OC)cc1` [GW2580], the “severity of established CIA (mean visual arthritis score, paw thickness)” value in series [3] is given as “highly effective at treating established collagen-induced arthritis; also recorded: reduced the severity of arthritis”. Also, the IC50 was 4300 nM and 4350 nM in the series with PDGFR [4] (read-out: IC50 for PDGFbb-induced FLS proliferation (PDGFR), FLS from human RA patient, H3-thymidine incorporation, FIG. 11B); 4300 nM in the series on PDGFR [4] (read-out: PDGFR Inhibitory Profile (IC50), Table 5, value referenced to FIG. 11).
Turning to `Cc1cn(-c2cc(NC(=O)c3ccc(C)c(Nc4nccc(-c5cccnc5)n4)c3)cc(C(F)(F)F)c2)cn1` [Nilotinib], the IC50 with PDGFR [1] (setting [7]) was 1 nM.
For the compound `Clc1ccc(Nc2nnc(Cc3ccncc3)c3ccccc23)cc1` [Vatalanib], the IC50 with PDGFR [1] (setting [7]) was […].
Consider `CNC(=O)c1cc(Oc2ccc(NC(=O)Nc3ccc(Cl)c(C(F)(F)F)c3)cc2)ccn1` [Sorafenib], for which the “PDGFR Inhibitory profile” value in the series on PDGFR [1] (Table 6) was “potent”.
`Cn1c(=O)c(-c2c(Cl)cccc2Cl)cc2cnc(Nc3cccc(CO)c3)nc21` [PD166326]: the trough plasma level result is “approximately 0.005 μM” in series [5] (25 mg/kg) and about 0.018 µM in series [5] (50 mg/kg). In addition, the values for the peak plasma level in series [5] (25 mg/kg) and in series [5] (50 mg/kg) were 0.026 µM and 0.098 µM, respectively.
Consider `CC(C)c1c(C(=O)Nc2ccccc2)c(-c2ccccc2)c(-c2ccc(F)cc2)n1CC[C@@H](O)C[C@@H](O)CC(=O)O` [Atorvastatin], for which the “clinical scores of CIA” value in series [6] was “not effective at decreasing the clinical scores of CIA”.
For `COc1cc2c(Oc3ccc4[nH]c(C)cc4c3F)ncnc2cc1OCCCN1CCCC1` [Cediranib], the “PDGFR Inhibitory profile” value with PDGFR [1] (Table 7) is reported as “potent?”.
